Data on 32 compounds can be found in US9376418B2, “Substituted pyridine spleen tyrosine kinase (SYK) inhibitors” (Merck Sharp & Dohme Corp., priority 2012, dated 2016).

For the experiment, the target named is T1, recombinant human GST-SYK (Homo sapiens, UniProt P43405).
T1 construct: purchased Carna Biosciences 08-176
Description: Homogeneous Time-Resolved Fluorescence (HTRF) assay for the recombinant human Syk enzyme. The format is biochemical. As to conditions: HTRF assay, recombinant human GST-SYK; IC50 given as class symbols; read-out: rhSYK Activity. Put shortly:
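GST-hSYK ([…]) was preincubated with inhibitor (0.1% DMSO final) for 10 minutes at room temperature in 15 mM Tris-HCl pH 7.5, 0.01% tween 20, 2 mM DTT. Biotinylated peptide (250 nM), 5 mM magnesium and 25 μM ATP started a 45-minute room-temperature reaction, read by time-resolved fluorescence.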
In general terms: In TR-FRET formats the signal depends on donor and acceptor labels being close together.
As to `Cc1cc(Nc2nccc(C(F)(F)F)n2)cc(-c2ccc(C(=O)Nc3cncnc3)nc2)c1` [Example 16.29, 5-(3-methyl-5-{[4-(trifluoromethyl)pyrimidin-2-yl]amino}phenyl)-N-pyrimidin-5-ylpyridine-2-carboxamide], the IC50 was in the range of 100 to 1000 nM. Under `Cc1cc(Nc2nccc(C(F)(F)F)n2)cc(-c2ccc(S(=O)(=O)NC3CCNC3=O)nc2)c1` (centres unmarked) [Example 21.3, 5-(3-methyl-5-{[4-(trifluoromethyl)pyrimidin-2-yl]amino}phenyl)-N-(2-oxopyrrolidin-3-yl)pyridine-2-sulfonamide] stands less than 100 nM; under `Cc1cc(Nc2nccc(C(F)(F)F)n2)cc(-c2ccc(N3CCCC4(CCCCO4)C3)nc2)c1` (centres unmarked) [Example 7.116, N-{3-methyl-5-[6-(1-oxa-8-azaspiro[5.5]undec-8-yl)pyridin-3-yl]phenyl}-4-(trifluoromethyl)pyrimidin-2-amine], 100 to 1000 nM. As for `Cc1cc(Nc2nccc(C(F)(F)F)n2)cc(-c2ccc(N[C@H]3CC[C@H](C(=O)O)CC3)nc2)c1` [Example 7.143, trans-4-{[5-(3-methyl-5-{[4-(trifluoromethyl)pyrimidin-2-yl]amino}phenyl)pyridin-2-yl]amino}cyclohexanecarboxylic acid], the figure is less than 100 nM; as for `Cc1cc(Nc2nccc(C(F)(F)F)n2)cc(-c2ccc(C(=O)N3CCC[S+]([O-])CC3)nc2)c1` (centres unmarked) [Example 16.52, N-(3-methyl-5-{6-[(1-oxido-1,4-thiazepan-4-yl)carbonyl]pyridin-3-yl}phenyl)-4-(trifluoromethyl)pyrimidin-2-amine], less than 100 nM; as for `Cc1cc(Nc2nccc(C(F)(F)F)n2)cc(-c2ccc(NCC3CCC(C(=O)O)CC3)nc2)c1` (centres unmarked) [Example 7.148, 4-({[5-(3-methyl-5-{[4-(trifluoromethyl)pyrimidin-2-yl]amino}phenyl)pyridin-2-yl]amino}methyl)cyclohexanecarboxylic acid], less than 100 nM. Under `CCOC(=O)CCc1ccc(-c2cc(C)cc(Nc3nccc(C4CC4)n3)c2)cn1` [Example 2.103, ethyl 3-(5-{3-[(4-cyclopropylpyrimidin-2-yl)amino]-5-methylphenyl}pyridin-2-yl)propanoate] stands less than 100 nM; under `Cc1cc(Nc2nccc(C(F)F)n2)cc(-c2ccc(C(C)(O)C3CCC(C(=O)O)CC3)nc2)c1` (single isomer, unassigned) [Example 9.29, trans-4-{(1R or 1S)-1-[5-(3-{[4-(difluoromethyl)pyrimidin-2-yl]amino}-5-methylphenyl)pyridin-2-yl]-1-hydroxyethyl}cyclohexanecarboxylic acid], less than 100 nM. In the case of `COCC(O)CNC(=O)c1ccc(-c2cc(C)cc(Nc3nccc(C(F)(F)F)n3)c2)cn1` (centres unmarked) [Example 16.45, N-(2-hydroxy-3-methoxypropyl)-5-(3-methyl-5-{[4-(trifluoromethyl)pyrimidin-2-yl]amino}phenyl)pyridine-2-carboxamide], the IC50 is less than 100 nM.

Take `Cc1cc(Nc2nccc(C(F)(F)F)n2)cc(-c2ccc(CCC(N)=O)nc2)c1` [Example 13.3, 3-[5-(3-Methyl-5-{[4-(trifluoromethyl)pyrimidin-2-yl]amino}phenyl)pyridin-2-yl]propanamide]: the IC50 was less than 100 nM. For the compound `Cc1cc(Nc2nccc(C(F)(F)F)n2)cc(-c2ccc(C(=O)N3CCOC(CCO)C3)nc2)c1` (centres unmarked) [Example 16.37, 2-(4-{[5-(3-methyl-5-{[4-(trifluoromethyl)pyrimidin-2-yl]amino}phenyl)pyridin-2-yl]carbonyl}morpholin-2-yl)ethanol], the IC50 is less than 100 nM. As for `O=C(O)c1cccc(-c2cccc(Nc3nccc(C(F)(F)F)n3)c2)n1` [Example 2.12, 6-(3-{[4-(trifluoromethyl)pyrimidin-2-yl]amino}phenyl)pyridine-2-carboxylic acid], the figure is 100 to 1000 nM; as for `Cc1cc(Nc2nccc(C(F)(F)F)n2)cc(-c2ccc(C(O)C(C)(C)C(=O)O)nc2)c1` (centres unmarked) [Example 23.1, 3-Hydroxy-2,2-dimethyl-3-[5-(3-methyl-5-{[4-(trifluoromethyl)pyrimidin-2-yl]amino}phenyl)pyridin-2-yl]propanoic acid], less than 100 nM; as for `Cc1cc(Nc2nccc(C(F)(F)F)n2)cc(-c2ccc(F)nc2)c1` [Example 4.4, N-[3-(6-fluoropyridin-3-yl)-5-methylphenyl]-4-(trifluoromethyl)pyrimidin-2-amine], 100 to 1000 nM. Under `Cc1cc(Nc2nccc(C(F)(F)F)n2)cc(-c2ccc(CN)nc2)c1` [Example 2.63, N-{3-[6-(aminomethyl)pyridin-3-yl]-5-methylphenyl}-4-(trifluoromethyl)pyrimidin-2-amine] stands less than 100 nM. Under `Cc1cc(Nc2nccc(C(F)(F)F)n2)cc(-c2ccnc(NC3(CO)CC3)c2)c1` [Example 15.56, (1-{[4-(3-methyl-5-{[4-(trifluoromethyl)pyrimidin-2-yl]amino}phenyl)pyridin-2-yl]amino}cyclopropyl)methanol] stands less than 100 nM.

Take `Cc1cc(Nc2nccc(C(F)(F)F)n2)cc(-c2ccc(C(=O)N3CCN(C)C(=O)C3)nc2)c1` [Example 16.20, 1-methyl-4-{[5-(3-methyl-5-{[4-(trifluoromethyl)pyrimidin-2-yl]amino}phenyl)pyridin-2-yl]carbonyl}piperazin-2-one]: the IC50 was less than 100 nM. For `COCC1CN(C(=O)c2ccc(-c3cc(C)cc(Nc4nccc(C(F)(F)F)n4)c3)cn2)CCO1` (centres unmarked) [Example 16.39, N-[3-(6-{[2-(methoxymethyl)morpholin-4-yl]carbonyl}pyridin-3-yl)-5-methylphenyl]-4-(trifluoromethyl)pyrimidin-2-amine], the IC50 is less than 100 nM. As for `Cc1cc(Nc2nccc(C(F)(F)F)n2)cc(-c2ccnc(N3CC(C)NC(C)C3)c2)c1` (centres unmarked) [Example 15.85, N-{3-[2-(3,5-dimethylpiperazin-1-yl)pyridin-4-yl]-5-methylphenyl}-4-(trifluoromethyl)pyrimidin-2-amine], the figure is less than 100 nM; as for `Cc1cc(Nc2nccc(C(F)(F)F)n2)cc(-c2ccc(C(=O)NCCO)nc2)c1` [Example 16.5, N-(2-hydroxyethyl)-5-(3-methyl-5-{[4-(trifluoromethyl)pyrimidin-2-yl]amino}phenyl)pyridine-2-carboxamide], less than 100 nM; as for `Cc1cc(Nc2nccc(C(F)(F)F)n2)cc(-c2ccc(C(=O)N(C)Cc3n[nH]c(=O)[nH]3)nc2)c1` [Example 16.51, N-methyl-5-(3-methyl-5-{[4-(trifluoromethyl)pyrimidin-2-yl]amino}phenyl)-N-[(5-oxo-4,5-dihydro-1H-1,2,4-triazol-3-yl)methyl]pyridine-2-carboxamide], less than 100 nM. `Cc1cc(Nc2nccc(C(F)(F)F)n2)cc(-c2ccc(NCCCO)nc2)c1` [Example 7.113, 3-{[5-(3-methyl-5-{[4-(trifluoromethyl)pyrimidin-2-yl]amino}phenyl)pyridin-2-yl]amino}propan-1-ol]: the IC50 was less than 100 nM. Under `CCCN1CCCN(c2cc(-c3cc(C)cc(Nc4nccc(C(F)(F)F)n4)c3)ccn2)CC1` [Example 15.76, N-{3-methyl-5-[2-(4-propyl-1,4-diazepan-1-yl)pyridin-4-yl]phenyl}-4-(trifluoromethyl)pyrimidin-2-amine] stands less than 100 nM; under `Cc1cc(Nc2nccc(C(F)(F)F)n2)cc(-c2ccc(N[C@H]3CC[C@@H](C(=O)O)CC3)nc2)c1` [Example 7.142, cis-4-{[5-(3-methyl-5-{[4-(trifluoromethyl)pyrimidin-2-yl]amino}phenyl)pyridin-2-yl]amino}cyclohexanecarboxylic acid], less than 100 nM; under `Cc1cc(Nc2nccc(C(F)(F)F)n2)cc(-c2ccc(C3(O)COC3)nc2)c1` [Example 9.55, 3-[5-(3-methyl-5-{[4-(trifluoromethyl)pyrimidin-2-yl]amino}phenyl)pyridin-2-yl]oxetan-3-ol], less than 100 nM. Regarding `Cc1cc(Nc2nccc(C(F)(F)F)n2)cc(-c2ccc(C(=O)N3CCNC(=O)C3C)nc2)c1` (centres unmarked) [Example 12.5, 3-methyl-4-{[5-(3-methyl-5-{[4-(trifluoromethyl)pyrimidin-2-yl]amino}phenyl)pyridin-2-yl]carbonyl}piperazin-2-one], the IC50 was less than 100 nM.

`CC(=O)C(C)(O)c1cncc(-c2cc(C)cc(Nc3nccc(C(F)(F)F)n3)c2)c1` (centres unmarked) [Example 9.72, 3-hydroxy-3-[5-(3-methyl-5-{[4-(trifluoromethyl)pyrimidin-2-yl]amino}phenyl)pyridin-3-yl]butan-2-one]: the IC50 is less than 100 nM.

Regarding `CCC(CO)Nc1cc(-c2cc(C)cc(Nc3nccc(C(F)(F)F)n3)c2)ccn1` (centres unmarked) [Example 15.37, 2-{[4-(3-methyl-5-{[4-(trifluoromethyl)pyrimidin-2-yl]amino}phenyl)pyridin-2-yl]amino}butan-1-ol], the IC50 is less than 100 nM. Under `Cc1cc(Nc2nccc(C(F)(F)F)n2)cc(-c2ccc(C(=O)NCC(C)(C)O)nc2)c1` [Example 16.10, N-(2-hydroxy-2-methylpropyl)-5-(3-methyl-5-{[4-(trifluoromethyl)pyrimidin-2-yl]amino}phenyl)pyridine-2-carboxamide] stands 100 to 1000 nM; under `Cc1cc(Nc2nccc(C(F)(F)F)n2)cc(-c2ccc(NCC(N)=O)nc2)c1` [Example 7.31, N~2~-[5-(3-methyl-5-{[4-(trifluoromethyl)pyrimidin-2-yl]amino}phenyl)pyridin-2-yl]glycinamide], less than 100 nM. As for `Cc1cc(Nc2nccc(C(F)(F)F)n2)cc(-c2ccc(CCC#N)nc2)c1` [Example 13.1, 3-[5-(3-Methyl-5-{[4-(trifluoromethyl)pyrimidin-2-yl]amino}phenyl)pyridin-2-yl]propanenitrile], the figure is less than 100 nM; as for `Cc1cc(Nc2nccc(C(F)(F)F)n2)cc(-c2ccnc(N3CCC(C(=O)O)CC3)c2)c1` [Example 15.87, 1-[4-(3-methyl-5-{[4-(trifluoromethyl)pyrimidin-2-yl]amino}phenyl)pyridin-2-yl]piperidine-4-carboxylic acid], less than 100 nM.
